Like-named read-outs stand apart in the source and are kept apart here.
How the values were obtained:
[1] = tested on: MOPr-VACC inhibition in dorsal root ganglia (DRG) neurons; assay: cells; format: cell-based, mouse; conditions: for Emax: read-out: Emax (% inhibition), VACC inhibition; for IC50: read-out: IC50, VACC inhibition
[2] = tested on: MOPr-VACC inhibition in DRG neurons; format: cell-based, mouse
[3] = tested on: VACCs in DRG neurons; assay: Voltage-dependent component of agonist-VACC inhibition (high-voltage pre-pulse); format: cell-based, mouse; conditions: normalized to each agonist's inhibition
[4] = target: MOPr (mMOR-Venus) / Gαi-luciferase (Mus musculus, UniProt P42866); assay: cell-based; format: cell-based
Sequence of MOPr (mMOR-Venus) / Gαi-luciferase (P63096 whole entry): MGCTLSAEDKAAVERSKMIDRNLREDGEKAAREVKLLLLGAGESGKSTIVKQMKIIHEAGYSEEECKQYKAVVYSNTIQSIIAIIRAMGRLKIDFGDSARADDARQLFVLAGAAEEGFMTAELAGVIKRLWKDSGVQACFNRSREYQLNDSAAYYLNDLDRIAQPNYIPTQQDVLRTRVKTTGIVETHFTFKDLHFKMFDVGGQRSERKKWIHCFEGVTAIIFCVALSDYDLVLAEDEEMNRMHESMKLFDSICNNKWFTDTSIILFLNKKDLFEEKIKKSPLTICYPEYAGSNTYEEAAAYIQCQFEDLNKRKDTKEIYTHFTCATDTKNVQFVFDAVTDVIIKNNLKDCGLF
Sequence of MOPr (mMOR-Venus) / Gαi-luciferase (P42866 whole entry): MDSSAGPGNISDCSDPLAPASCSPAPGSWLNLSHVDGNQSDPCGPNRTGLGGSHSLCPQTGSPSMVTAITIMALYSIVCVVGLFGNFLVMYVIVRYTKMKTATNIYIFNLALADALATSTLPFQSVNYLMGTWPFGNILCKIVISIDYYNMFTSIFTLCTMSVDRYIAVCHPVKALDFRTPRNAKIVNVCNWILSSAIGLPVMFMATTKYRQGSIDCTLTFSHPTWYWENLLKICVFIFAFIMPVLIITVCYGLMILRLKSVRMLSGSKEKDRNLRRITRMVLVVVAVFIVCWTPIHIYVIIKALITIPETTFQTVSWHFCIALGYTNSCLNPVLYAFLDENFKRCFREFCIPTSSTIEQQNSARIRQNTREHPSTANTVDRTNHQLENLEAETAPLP
Sequence of MOPr (mMOR-Venus) / Gαi-luciferase (P59768 whole entry, further chain): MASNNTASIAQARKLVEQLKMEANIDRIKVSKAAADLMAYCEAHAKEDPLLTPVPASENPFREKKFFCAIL
Sequence of MOPr (mMOR-Venus) / Gαi-luciferase (P62873 whole entry, further chain): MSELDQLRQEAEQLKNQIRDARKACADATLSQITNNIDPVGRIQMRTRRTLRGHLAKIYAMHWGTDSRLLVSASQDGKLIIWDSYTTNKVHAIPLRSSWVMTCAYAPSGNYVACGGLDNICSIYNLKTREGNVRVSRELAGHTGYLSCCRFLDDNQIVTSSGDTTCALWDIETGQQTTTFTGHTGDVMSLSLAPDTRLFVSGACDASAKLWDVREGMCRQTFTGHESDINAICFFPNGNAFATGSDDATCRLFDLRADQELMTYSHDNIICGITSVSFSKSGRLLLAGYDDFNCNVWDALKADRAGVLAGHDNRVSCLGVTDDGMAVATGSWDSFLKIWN

[5] = target: MOPr (mMOR-Venus) / βarr2-luciferase (Mus musculus, UniProt P42866); assay: cell-based
Sequence of MOPr (mMOR-Venus) / βarr2-luciferase (P32121 whole entry): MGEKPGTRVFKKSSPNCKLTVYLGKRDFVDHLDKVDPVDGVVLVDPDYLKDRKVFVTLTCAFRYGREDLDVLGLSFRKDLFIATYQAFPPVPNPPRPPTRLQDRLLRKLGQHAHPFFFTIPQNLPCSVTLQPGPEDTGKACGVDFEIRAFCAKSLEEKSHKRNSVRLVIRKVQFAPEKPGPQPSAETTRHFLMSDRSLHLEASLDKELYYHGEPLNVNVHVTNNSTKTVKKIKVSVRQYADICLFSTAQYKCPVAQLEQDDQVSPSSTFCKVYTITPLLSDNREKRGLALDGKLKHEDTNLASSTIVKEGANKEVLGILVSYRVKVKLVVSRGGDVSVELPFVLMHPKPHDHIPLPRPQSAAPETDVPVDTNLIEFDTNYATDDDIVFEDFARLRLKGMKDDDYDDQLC
Sequence of MOPr (mMOR-Venus) / βarr2-luciferase (P42866 whole entry): as the sequence (P42866 whole entry) above

[6] = target: MOPr (mMOR-Venus) / βarr1-luciferase (Mus musculus, UniProt P42866); assay: cell-based; format: cell-based
Sequence of MOPr (mMOR-Venus) / βarr1-luciferase (P42866 whole entry, one chain of several): as the sequence (P42866 whole entry) above

[7] = target: T1, MOPr (Mus musculus, UniProt P42866); format: cell-based
T1 construct: expressed in transfected cells; host or cells: HEK293
T1 sequence (P42866 whole entry): as above

[8] = target: FAP-tagged MOPr in HEK cells (Homo sapiens, UniProt P35372); assay: cell-based; format: cell-based; conditions: for Emax: Emax (% background), internalization
Sequence of FAP-tagged MOPr in HEK cells (P35372 whole entry): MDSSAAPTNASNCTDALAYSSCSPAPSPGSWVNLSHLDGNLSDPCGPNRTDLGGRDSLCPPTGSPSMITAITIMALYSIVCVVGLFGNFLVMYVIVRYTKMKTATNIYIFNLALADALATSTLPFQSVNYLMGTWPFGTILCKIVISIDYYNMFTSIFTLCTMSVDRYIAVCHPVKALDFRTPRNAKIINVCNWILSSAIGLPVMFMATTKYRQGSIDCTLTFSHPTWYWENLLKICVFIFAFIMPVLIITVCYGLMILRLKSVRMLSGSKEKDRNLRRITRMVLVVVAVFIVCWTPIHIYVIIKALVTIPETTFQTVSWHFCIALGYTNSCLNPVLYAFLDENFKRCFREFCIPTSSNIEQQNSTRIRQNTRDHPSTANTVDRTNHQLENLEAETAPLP

[9] = target: T2, MOR (recombinant human receptor) (Homo sapiens, UniProt P35372); format: binding; conditions: calculated as t1/2 = 0.69/koff
T2 construct: host or cells: CHO-K1 membranes
T2 sequence (P35372 whole entry): as above

[10] = tested on: VACCs in DRG neurons lacking βarr1; assay: VACC inhibition in DRG neurons of βarr1-knockout mice; format: cell-based, mouse; conditions: βarr1-knockout vs WT DRG neurons; NKTR-181 30 μM
[11] = tested on: carrageenan-induced thermal hyperalgesia; assay: Thermal withdrawal thresholds (Hargreaves) after i.pl. carrageenan; format: in vivo, mouse
[12] = tested on: thermal nociception; assay: Thermal withdrawal thresholds (Hargreaves) after i.pl. vehicle; format: in vivo, mouse; conditions: 3 mg/kg i.pl., mice
[13] = tested on: drug preference; assay: Conditioned place preference in pain-naive mice; format: in vivo, mouse
[14] = tested on: carrageenan-induced place aversion; assay: Carrageenan-induced conditioned place aversion; format: in vivo, mouse; conditions: 1 mg/kg i.pl., male mice
[15] = tested on: drug-seeking behavior; assay: Intravenous self-administration (IVSA), FR10 schedule; format: in vivo, Sprague–Dawley rats; conditions: for number of reinforcers obtained vs saline: FR10, rats
[16] = target: Mu opioid receptor (MOPr) of the competitive binding assays (UniProt P42866)
Sequence of Mu opioid receptor (MOPr) of the competitive binding assays (P42866 whole entry, the tested form may be a part): as the sequence (P42866 whole entry) above

[17] = target: T3, mMOR-Venus (mu opioid receptor, Venus-tagged) (mouse (from the label mMOR), UniProt P42866 1-398); assay: FRET or BRET; live HEK293 cells co-transfected with mMOR-Venus (acceptor) and Renilla Luciferase8-tagged β-arrestin-1, β-arrestin-2 or Gαi (donor; Gαi with untagged Gβγ fusion); agonist added at 0 nM-100 μM (DAMGO, NKTR-181, oxycodone, morphine, fentanyl); coelenterazine h 4.5 μM; 30°C; netBRET as percent of the maximum DAMGO response, four-parameter fit; conditions: partners not purified
T3 construct: mu opioid receptor (MOPr), printed as mMOR; BRET acceptor; 'm' in mMOR is read as mouse; also called MOPr-venus; MOPr; source: HEK293, transfected (FuGENE 6), in live cells
T3 sequence (P42866 whole entry, the tested form may be a part): as the sequence (P42866 whole entry) above

CN1CC[C@]23c4c5ccc(O)c4O[C@H]2[C@@H](O)C=C[C@H]3[C@H]1C5 [Morphine, morphine]
Emax ([1]; Mus musculus, DRG neuron): 33 ± 6% | rapid desensitization (loss of VACC inhibition) [2]: greater desensitization than NKTR-181 | voltage-dependent component of VACC inhibition [3]: predominantly inhibit VACCs by a voltage-dependent mechanism

COc1ccc2c3c1O[C@H]1C(=O)CC[C@@]4(O)[C@@H](C2)N(C)CC[C@]314 [Oxycodone, oxycodone]
Emax ([1]; Mus musculus, DRG neuron): 34 ± 10% | IC50 ([1]; Mus musculus, DRG neuron): 1700 nM | EC50 [4]: 355 nM | σ (transduction coefficient), Gαi recruitment [4]: 0.006 ± 0.07 | Emax ([4]; HEK293, read-out: Emax, Gαi recruitment): 62.5 ± 0.9% | EC50 [5]: 100 nM | σ (transduction coefficient), β-arr2 recruitment [5]: −0.17 ± 0.05 | EC50 [6]: 389 nM | σ (transduction coefficient), β-arr1 recruitment [6]: 0.07 ± 0.05 | Emax ([6]; HEK293, read-out: Emax, β-arr1 recruitment): 63.9 ± 0.8% | Bias factor Gαi vs βarr1 [7]: −0.14 ± 0.07 | Bias factor Gαi vs βarr2 [7]: 0.17 ± 0.08 | Bias factor βarr1 vs βarr2 [7]: 0.32 ± 0.06 | MOPr internalization, dose-dependence and comparison [8]: did not result in a dose-dependent effect and could not be curve-fitted at any timepoint | dissociation half-life t1/2 [9]: 1.25 min | rapid desensitization (loss of VACC inhibition) [2]: limited desensitization | voltage-dependent component of VACC inhibition [3]: predominantly inhibit VACCs by a voltage-dependent mechanism | requirement of βarr1 for full VACC inhibition [10]: require βarr1 to obtain full VACC inhibition | reversal of carrageenan-induced hyperalgesia ([11]; 1 mg/kg i.pl., mice): did not reverse carrageenan-induced hyperalgesia | thermal withdrawal thresholds following i.pl. carrageenan ([11]; 3 mg/kg i.pl., mice): increased withdrawal thresholds following i.pl. carrageenan | time to reach peak levels of effect ([11]; antinociception / anti-hyperalgesia, carrageenan model, 10 min was the earliest timepoint measured): 10 min | sex difference in anti-hyperalgesia ([11]; higher dose (oxycodone 3 mg/kg, NKTR-181 100 mg/kg), male vs female mice): No sex differences were evident | thermal withdrawal thresholds following i.pl. vehicle [12]: increased withdrawal thresholds following i.pl. vehicle | conditioned place preference ([13]; 1 mg/kg i.pl.): did not produce a place preference in either male or female mice | conditioned place preference ([13]; 3 mg/kg i.pl.): produced a place preference in both sexes | carrageenan-induced place aversion [14]: prevented place aversion | number of reinforcers obtained vs saline ([15]; 0.1 mg/kg/infusion): no difference | number of reinforcers obtained vs saline ([15]; 0.01 and 0.032 mg/kg/infusion): higher | total amount of drug infused over the hour-long session ([15]; across the three doses of each drug, rats): increase in the total amount of drug infused across all doses

[D-Ala^2, N-MePhe^4, Gly-ol]-enkephalin (peptide)
Emax (% inhibition) of VACCs in cultured adult mouse DRG neurons, whole-cell patch clamp [16]: 41 % inhibition | IC50 of inhibition of voltage-activated calcium channel currents (VACCs) in cultured adult mouse DRG neurons, whole-cell patch clamp [16]: 228 nM

C[C@@H](NC(=O)[C@@H](N)Cc1ccc(O)cc1)C(=O)NCC(=O)N(C)[C@@H](Cc1ccccc1)C(=O)NCCO [DAMGO, [D-Ala^2, N-MePhe^4, Gly-ol]-enkephalin]
Emax (% inhibition), VACC inhibition [1]: 41 ± 4 % inhibition | IC50 [1]: 228 nM | σ (transduction coefficient), Gαi recruitment [4]: 0 | σ (transduction coefficient), β-arr2 recruitment [5]: 0 | σ (transduction coefficient), β-arr1 recruitment [6]: 0 | Bias factor Gαi vs βarr1 [7]: Unbiased | Bias factor Gαi vs βarr2 [7]: Unbiased | Bias factor βarr1 vs βarr2 [7]: Unbiased | Emax ([8]; HEK293, read-out: 30 min): 78 ± 6% | Emax ([8]; HEK293, read-out: 60 min): 72 ± 7% | rapid desensitization (loss of VACC inhibition) [2]: greater desensitization than NKTR-181 | voltage-dependent component of VACC inhibition [3]: predominantly inhibit VACCs by a voltage-dependent mechanism

B1: β-arrestin-1-Renilla Luciferase8 (natural protein, UniProt P49407 1-418, looked up)
chain: MGDKGTRVFKKASPNGKLTVYLGKRDFVDHIDLVDPVDGVVLVDPEYLKERRVYVTLTCAFRYGREDLDVLGLTFRKDLFVANVQSFPPAPEDKKPLTRLQERLIKKLGEHAYPFTFEIPPNLPCSVTLQPGPEDTGKACGVDYEVKAFCAENLEEKIHKRNSVRLVIRKVQYAPERPGPQPTAETTRQFLMSDKPLHLEASLDKEIYYHGEPISVNVHVTNNTNKTVKKIKISVRQYADICLFNTAQYKCPVAMEEADDTVAPSSTFCKVYTLTPFLANNREKRGLALDGKLKHEDTNLASSTLLREGANREILGIIVSYKVKVKLVVSRGGLLGDLASSDVAVELPFTLMHPKPKEEPPHREVPENETPVDTNLIELDTNDDDIVFEDFARQRLKGMKDDKEEEEDGTGSPQLNNR
notes: β-arrestin-1; BRET donor; also called βarr1; β-arr1; source: HEK293, transfected (FuGENE 6), in live cells
LogEC50 of the agonist DAMGO for the recruitment [17]: -6.94 ± 0.09 log M | LogEC50 of the agonist NKTR-181 for the recruitment [17]: -6.45 ± 0.12 log M | LogEC50 of the agonist fentanyl for the recruitment [17]: -8 ± 0.12 log M | LogEC50 of the agonist morphine for the recruitment [17]: -6.3 ± 0.18 log M | LogEC50 of the agonist oxycodone for the recruitment [17]: -6.41 ± 0.12 log M

Reference: paper PMC8915576 (Frontiers in Pain Research, 2021)
